Converted amounts (≈) assume the structure as drawn. Bridge positions count the residues as written; N and C are the ends. Square brackets hold non-standard residues; d marks the D form. Peptide text beside a SMILES is read from it. * marks the point of attachment. X1 = CC[C@H](C)CCCCC(=O)*; Dab = NCC[C@H](N)C(=O)O
How the values were obtained:
[1] = test system: Acinetobacter baumannii (ATCCBAA-1605); test: microbe, parasite or virus in culture; format: cell-based; conditions: ATCCBAA1605, read-out: MIC Acinetobacter baumannii (ATCCBAA-1605)
Description: (§1) Daptomycin and polymyxin B were selected as positive controls against Gram-positive and Gram-negative bacteria, respectively.
(§2) All experiments were conducted in triplicate.

E. coli (ATCC BAA-2452) = test: microbe, parasite or virus in culture; format: cell-based; conditions: Escherichia coli, ATCCBAA2452, read-out: MIC E. coli (ATCC BAA-2452)
Description: as §1, §2

[2] = test system: K. pneumoniae (ATCC 13883); test: microbe, parasite or virus in culture; format: cell-based; conditions: Klebsiella pneumoniae, ATCC13883, read-out: MIC K. pneumoniae (ATCC 13883)
Description: as §1, §2

[3] = test system: P. aeruginosa (ATCC 10145); test: microbe, parasite or virus in culture; format: cell-based; conditions: Pseudomonas aeruginosa, ATCC10145, read-out: MIC P. aeruginosa (ATCC 10145)
Description: as §1, §2

[4] = test system: P. aeruginosa (ATCC BAA-1744); test: microbe, parasite or virus in culture; format: cell-based; conditions: Pseudomonas aeruginosa, ATCCBAA1744, read-out: MIC P. aeruginosa (ATCC BAA-1744)
Description: as §1, §2

[5] = test system: S. aureus (ATCC BAA-1556); test: Synergistic checkerboard assay; format: cell-based; conditions: Staphylococcus aureus, ATCCBAA1556, read-out: MIC antibiotic alone
Description: (§3) This study aimed to compare the influence of synergistic combinations on the antibacterial efficacy against the individual peptide or antibiotic. The comparison is represented by the fractional inhibitory concentration index (FICI) value, which classifies the combined impact of the two tested compounds. Selected antibiotics were tested as 11 dose points of two-fold serial dilutions across the assay plate in combination with seven points of two-fold serial dilution of the peptides down the assay plate. Two-fold serial dilutions for antibiotics and peptides were performed individually to determine the MIC value for each tested compound.
(§4) The concentrations of the peptide started from its respective MICs and were then subjected to two-fold serial dilutions (a total of 7 points). […] Antibiotics were tested as 11 points, two-fold serial dilutions across the assay plate (from 1 to 11 columns) in combination with a seven (A–G)-point and two-fold serial dilution of the peptides down the assay plate. […] In column 12 (A–G) down the assay plate, a two-fold serial dilution of the peptide alone was performed.
(§5) The following equation was applied to calculate the FICI: (A)/MICA + (B)/MICB = FICA + FICB = FICI, where (A) and (B) are the MIC of (antibiotic + [peptide]) in combination (in a single well) and MICA and MICB are the MIC of each compound individually. Based on the calculated FICI value, the interaction between combinations was categorized into four prospects synergy, partial synergy, additive or indifference, and antagonism. […] All experiments were performed in triplicate.

[6] = test system: P. aeruginosa (ATCC 27883); test: Synergistic checkerboard assay; format: cell-based; conditions: Pseudomonas aeruginosa, ATCC27883, read-out: MIC antibiotic alone
Description: as §3, §4, §5

E. coli (ATCC 25922) [7] = test: Synergistic checkerboard assay; format: cell-based; conditions: Escherichia coli, ATCC25922, read-out: MIC antibiotic alone
Description: as §3, §4, §5

[8] = test system: S. aureus (ATCC 29213), MRSA (ATCC BAA-1556), E. coli (ATCC 25922), E. coli (ATCC BAA-2452); test: Serial passage resistance development study; format: cell-based, S. aureus and E. coli; conditions: 18 repeated passages
Description: The data represent the experiments performed in triplicate.
The assays were performed in 96-well microtiter plates using 2-fold serial dilutions of all the test specimens. From an inoculated microtiter plate, an aliquot of the well with the highest concentration permitting growth was taken and diluted in fresh media to achieve the optimum bacterial load identified by comparing the turbidity with the 0.5 McFarland standard. The bacterial suspension was then further diluted and used for successive passage with a resulting final concentration of 5 × 10^5 CFU/mL. MICs were recorded, and the next inoculum was prepared from the well containing the highest concentration of the drug that allowed growth. Eighteen repeated passages were performed in an identical fashion to that described above.

MRSA (ATCC BAA-1556) [9] = conditions: antibiotic alone or physical mixture with peptide (1:1 w/w)
[10] = test system: K. pneumoniae (ATCC BAA-1705); test: Synergistic checkerboard assay; conditions: Klebsiella pneumoniae, ATCCBAA1705, read-out: MIC antibiotic alone
Description: as §3, §4, §5

MRSA (ATCC BAA-1556) [11] = test: microbe, parasite or virus in culture; conditions: Staphylococcus aureus, read-out: MIC MRSA (ATCC BAA-1556)
[12] = test system: K. pneumoniae (ATCC BAA-1705); test: microbe, parasite or virus in culture; conditions: Klebsiella pneumoniae, ATCCBAA1705, read-out: MIC K. pneumoniae (ATCC BAA-1705)
[13] = test system: P. aeruginosa (ATCC 27883); test: microbe, parasite or virus in culture; conditions: Pseudomonas aeruginosa, ATCC27883, read-out: MIC P. aeruginosa (ATCC 27883)
E. coli (ATCC 25922) [14] = test: microbe, parasite or virus in culture; conditions: Escherichia coli, ATCC25922, read-out: MIC E. coli (ATCC 25922)
[15] = test system: K. pneumoniae (ATCC BAA-1705); test: microbe, parasite or virus in culture; conditions: Klebsiella pneumoniae, ATCCBAA1705, 24 h, read-out: MBC K. pneumoniae (ATCC BAA-1705)
[16] = test system: P. aeruginosa (ATCC 27883); test: microbe, parasite or virus in culture; conditions: Pseudomonas aeruginosa, ATCC27883, 24 h, read-out: MBC P. aeruginosa (ATCC 27883)
E. coli (ATCC 25922) [17] = test: microbe, parasite or virus in culture; conditions: Escherichia coli, ATCC25922, 24 h, read-out: MBC E. coli (ATCC 25922)
S. aureus (1193193) = test: microbe, parasite or virus in culture; conditions: Staphylococcus aureus, read-out: MIC S. aureus (1193193)
S. aureus (ATCC 29213) = test: microbe, parasite or virus in culture; conditions: Staphylococcus aureus, ATCC29213, read-out: MIC S. aureus (ATCC 29213)
E. coli (1191008) = test: microbe, parasite or virus in culture; conditions: Escherichia coli, read-out: MIC E. coli (1191008)
E. coli (ATCC 25922) [18] = test: microbe, parasite or virus in culture; conditions: Escherichia coli, ATCC25922, read-out: MIC E. coli (ATCC 25922); remark: listed apart in the source
[19] = test system: K. pneumoniae (ATCC 700603); test: microbe, parasite or virus in culture; conditions: Klebsiella pneumoniae, ATCC700603, read-out: MIC K. pneumoniae (ATCC 700603)
K. pneumoniae (1188718) = test: microbe, parasite or virus in culture; conditions: Klebsiella pneumoniae, read-out: MIC K. pneumoniae (1188718)
P. aeruginosa (1188712) = test: microbe, parasite or virus in culture; conditions: Pseudomonas aeruginosa, read-out: MIC P. aeruginosa (1188712)
[20] = test system: P. aeruginosa (ATCC 27853); test: microbe, parasite or virus in culture; conditions: Pseudomonas aeruginosa, ATCC27853, read-out: MIC P. aeruginosa (ATCC 27853)

**Q.** For `CC[C@H](C)CCCCC(=O)N[C@@H](CCN)C(=O)N[C@H](C(=O)N[C@@H](CCN)C(=O)N[C@H]1CCNC(=O)[C@H]([C@@H](C)O)NC(=O)[C@H](CCN)NC(=O)[C@H](CCN)NC(=O)[C@H](CC(C)C)NC(=O)[C@@H](Cc2ccccc2)NC(=O)[C@H](CCN)NC1=O)[C@@H](C)O` [polymyxin B] (X1-[Dab]T[Dab][Dab][Dab][dF]L[Dab][Dab]T; lactam 4-C), which MIC [1] is on record?
**A.** The MIC was 1 µg/mL (≈ 0.831 µM).

**Q.** What about the MIC (E. coli (ATCC BAA-2452)) of the same compound?
**A.** The MIC was 1 µg/mL (≈ 0.831 µM).

**Q.** What about the MIC [2] of the same compound?
**A.** The MIC was 1 µg/mL (≈ 0.831 µM).

**Q.** And the MIC [3]?
**A.** Its MIC is 2 µg/mL (≈ 1.66 µM).

**Q.** And the MIC [4]?
**A.** The MIC was 2 µg/mL (≈ 1.66 µM).

**Q.** And the MIC [5]?
**A.** The MIC was 64 µg/mL.

**Q.** What about the MIC [6] of the same compound?
**A.** Its MIC is 1 µg/mL.

**Q.** What about the MIC (E. coli (ATCC 25922) [7]) of the same compound?
**A.** Its MIC is 2 µg/mL.

**Q.** And the “change in MIC on resistance induction” value [8]?
**A.** Its value is “negligible changes in the MICs”.

**Q.** What about the “MIC S. aureus (ATCC BAA-1556)” value (MRSA (ATCC BAA-1556) [9]) of the same compound?
**A.** Its value is 64 µg/mL (≈ 53.2 µM).

**Q.** And the MIC [10]?
**A.** Its MIC is 1 µg/mL.

**Q.** What about the MIC (MRSA (ATCC BAA-1556) [11]) of the same compound?
**A.** Its MIC is 64 µg/mL (≈ 53.2 µM).

**Q.** And the MIC [12]?
**A.** Its MIC is 1 µg/mL (≈ 0.831 µM).

**Q.** What about the MIC [13] of the same compound?
**A.** The MIC was 1 µg/mL (≈ 0.831 µM).

**Q.** What about the MIC (E. coli (ATCC 25922) [14]) of the same compound?
**A.** Its MIC is 2 µg/mL (≈ 1.66 µM).

**Q.** And the MBC [15]?
**A.** The MBC was 2 µg/mL (≈ 1.66 µM).

**Q.** And the MBC [16]?
**A.** Its MBC is 2 µg/mL (≈ 1.66 µM).

**Q.** What about the MBC (E. coli (ATCC 25922) [17]) of the same compound?
**A.** Its MBC is 4 µg/mL (≈ 3.32 µM).

**Q.** For `CO/N=C(\C(=O)N[C@@H]1C(=O)N2C(C(=O)[O-])=C(C[N+]3(C)CCCC3)CS[C@H]12)c1csc(N)n1` [cefepime], which MIC (S. aureus (1193193)) is on record?
**A.** Its MIC is 16 µg/mL (≈ 33.3 µM).

**Q.** What about the MIC (S. aureus (ATCC 29213)) of the same compound?
**A.** Its MIC is 2 µg/mL (≈ 4.16 µM).

**Q.** And the MIC (E. coli (1191008))?
**A.** The MIC was 8 µg/mL (≈ 16.6 µM).

**Q.** And the MIC (E. coli (ATCC 25922) [18])?
**A.** The MIC was 0.06 µg/mL (≈ 0.125 µM).

**Q.** And the MIC [19]?
**A.** The MIC was 1 µg/mL (≈ 2.08 µM).

**Q.** What about the MIC (K. pneumoniae (1188718)) of the same compound?
**A.** Its MIC is 8 µg/mL (≈ 16.6 µM).

**Q.** What about the MIC (P. aeruginosa (1188712)) of the same compound?
**A.** Its MIC is 8 µg/mL (≈ 16.6 µM).

**Q.** What about the MIC [20] of the same compound?
**A.** The MIC was 1 µg/mL (≈ 2.08 µM).
